Source: patent US4684664A, “Derivatives of β-(4-isocyano-1,2,3,4-diepoxycyclopentyl) acrylic acid” (Kureha Kagaku Kogyo Kabushiki Kaisha, priority 1984, dated 1987)
Converted amounts (≈) assume the structure as drawn.

Experiments:
Type in all cases: cell-based
[1] = system: Enterobacter aerogenes ATCC 13048; experiment: Antibacterial activity, agar-dilution MIC, organism No. 23; details: Klebsiella aerogenes, ATCC13048; Organism No. 23, bouillon-agar; read-out: Minimum Inhibitory Concentration
In short: (§1)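 Endpoint: MIC in μg/ml of culture medium. Method: agar dilution. Medium: bouillon agar.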

[2] = system: Staphylococcus aureus Terajima; experiment: Antibacterial activity, agar-dilution MIC, organism No. 2; details: Staphylococcus aureus; Organism No. 2, bouillon-agar; read-out: Minimum Inhibitory Concentration
In short: as §1

[3] = system: Staphylococcus aureus MS 353; experiment: Antibacterial activity, agar-dilution MIC, organism No. 3; details: Staphylococcus aureus, MS353; Organism No. 3, bouillon-agar; read-out: Minimum Inhibitory Concentration
In short: as §1

[4] = system: Proteus rettgeri IFO 3850; experiment: Antibacterial activity, agar-dilution MIC, organism No. 22; details: Providencia rettgeri, IFO3850; Organism No. 22, bouillon-agar; read-out: Minimum Inhibitory Concentration
In short: as §1

[5] = system: Pseudomonas aeruginosa PAO 1; experiment: Antibacterial activity, agar-dilution MIC, organism No. 17; details: Pseudomonas aeruginosa, PAO1; Organism No. 17, bouillon-agar; read-out: Minimum Inhibitory Concentration
In short: as §1

[6] = system: Salmonella paratyphi-A 1015; experiment: Antibacterial activity, agar-dilution MIC, organism No. 10; details: Salmonella enterica, PARATYPHI, read-out: Minimum Inhibitory Concentration
In short: as §1

[7] = system: Staphylococcus aureus FDA 209PJc-1; experiment: Antibacterial activity, agar-dilution MIC, organism No. 1; details: Staphylococcus aureus, FDA209PJC1; Organism No. 1, bouillon-agar; read-out: Minimum Inhibitory Concentration
In short: as §1

[8] = system: Proteus morganii IFO 3848; experiment: Antibacterial activity, agar-dilution MIC, organism No. 18; details: Morganella morganii, IFO3848; Organism No. 18, bouillon-agar; read-out: Minimum Inhibitory Concentration
In short: as §1

[9] = system: Micrococcus luteus ATCC 9341; experiment: Antibacterial activity, agar-dilution MIC, organism No. 25; details: Micrococcus luteus, ATCC9341; Organism No. 25, bouillon-agar; read-out: Minimum Inhibitory Concentration
In short: as §1

[10] = system: Bacillus subtilis ATCC 6633; experiment: Antibacterial activity, agar-dilution MIC, organism No. 14; details: Bacillus subtilis, ATCC6633; Organism No. 14, bouillon-agar; read-out: Minimum Inhibitory Concentration
In short: as §1

[11] = system: Pseudomonas aeruginosa NCTC 10490; experiment: Antibacterial activity, agar-dilution MIC, organism No. 16; details: Pseudomonas aeruginosa, NCTC10490; Organism No. 16, bouillon-agar; read-out: Minimum Inhibitory Concentration
In short: as §1

[12] = system: Salmonella typhimurium IID 971; experiment: Antibacterial activity, agar-dilution MIC, organism No. 8; details: Salmonella enterica; Organism No. 8, bouillon-agar; read-out: Minimum Inhibitory Concentration
In short: as §1

Proteus vulgaris HX-19 = experiment: Antibacterial activity, agar-dilution MIC, organism No. 21; details: Proteus vulgaris, HX19; Organism No. 21, bouillon-agar; read-out: Minimum Inhibitory Concentration
In short: as §1

[13] = system: Escherichia coli K12 C600 IAM 1264; experiment: Antibacterial activity, agar-dilution MIC, organism No. 6; details: Escherichia coli, IAM1264; Organism No. 6, bouillon-agar; read-out: Minimum Inhibitory Concentration
In short: as §1

[14] = system: Salmonella shottmuelleri 8006; experiment: Antibacterial activity, agar-dilution MIC, organism No. 11; details: Salmonella, 8006; Organism No. 11, bouillon-agar; read-out: Minimum Inhibitory Concentration
In short: as §1

[15] = system: Salmonella enteritidis G 14; experiment: Antibacterial activity, agar-dilution MIC, organism No. 12; details: Salmonella enterica, ENTERITIDIS; Organism No. 12, bouillon-agar; read-out: Minimum Inhibitory Concentration
In short: as §1

[16] = system: Proteus mirabilis IFO 3849; experiment: Antibacterial activity, agar-dilution MIC, organism No. 19; details: Proteus mirabilis, IFO3849; Organism No. 19, bouillon-agar; read-out: Minimum Inhibitory Concentration
In short: as §1

Proteus vulgaris OX-19 = experiment: Antibacterial activity, agar-dilution MIC, organism No. 20; details: Proteus vulgaris, OX19; Organism No. 20, bouillon-agar; read-out: Minimum Inhibitory Concentration
In short: as §1

[17] = system: Streptococcus pyogenes Cook; experiment: Antibacterial activity, agar-dilution MIC, organism No. 4; details: Streptococcus pyogenes; Organism No. 4, bouillon-agar; read-out: Minimum Inhibitory Concentration
In short: as §1

Enterobacter cloacae 963 = experiment: Antibacterial activity, agar-dilution MIC, organism No. 24; details: Enterobacter cloacae, 963; Organism No. 24, bouillon-agar; read-out: Minimum Inhibitory Concentration
In short: as §1

[18] = system: Pseudomonas aeruginosa IFO 3445; experiment: Antibacterial activity, agar-dilution MIC, organism No. 15; details: Pseudomonas aeruginosa, IFO3445; Organism No. 15, bouillon-agar; read-out: Minimum Inhibitory Concentration
In short: as §1

[19] = system: Candida albicans IAM 4905; experiment: Antifungal activity, agar-dilution MIC, organism No. 29; details: Candida albicans, IAM4905; Organism No. 29, bouillon-agar; read-out: Minimum Inhibitory Concentration
In short: as §1

[20] = system: Escherichia coli NIHJ-JC-2; experiment: Antibacterial activity, agar-dilution MIC, organism No. 5; details: Escherichia coli, NIHJJC2; Organism No. 5, bouillon-agar; read-out: Minimum Inhibitory Concentration
In short: as §1

[21] = system: Aspergillus niger IFO 6342; experiment: Antifungal activity, agar-dilution MIC, organism No. 30; details: Aspergillus niger, IFO6342; Organism No. 30, bouillon-agar; read-out: Minimum Inhibitory Concentration
In short: as §1

[22] = system: Streptococcus pyogenes IFO 3340; experiment: Antibacterial activity, agar-dilution MIC, organism No. 26; details: Streptococcus pyogenes, IFO3340; Organism No. 26, bouillon-agar; read-out: Minimum Inhibitory Concentration
In short: as §1

Salmonella typhi 901 = experiment: Antibacterial activity, agar-dilution MIC, organism No. 9; details: Salmonella enterica, TYPHI, read-out: Minimum Inhibitory Concentration
In short: as §1

[23] = system: Mycoplasma pneumoniae IID817; experiment: Antimycoplasmal activity, MIC by phenol red colour change, organism No. 28; details: Mycoplasma, IID817; Organism No. 28, PPLO broth + 1% glucose, 37° C.; read-out: Minimum Inhibitory Concentration (MIC)
Description: Mycoplasma pneumoniae IID817 was used as the test microorganism in a culture medium prepared by adding 1% of glucose to "PPLO broth (manufactured by Difco Co.) liquid culture medium" at 37° C. with phenol red as an indicator, thereby culturing the test microorganism.

[24] = system: Streptococcus faecium IFO 3826; experiment: Antibacterial activity, agar-dilution MIC, organism No. 27; details: Enterococcus faecium, IFO3826; Organism No. 27, bouillon-agar; read-out: Minimum Inhibitory Concentration
In short: as §1

[25] = system: Klebsiella pneumoniae PCI-602; experiment: Antibacterial activity, agar-dilution MIC, organism No. 7; details: Klebsiella pneumoniae, PCI602; Organism No. 7, bouillon-agar; read-out: Minimum Inhibitory Concentration
In short: as §1

[26] = system: Serratia marcescens IAM 1184; experiment: Antibacterial activity, agar-dilution MIC, organism No. 13; details: Serratia marcescens, IAM1184; Organism No. 13, bouillon-agar; read-out: Minimum Inhibitory Concentration
From the text: Agar-dilution method was used for determination of the antibacterial activity and antifungal activity while using bouillon-agar culture medium, and the minimum inhibitory concentration of the specimen was expressed by μg/ml of the culture medium.

Compound	MIC [1]	MIC [2]	MIC [3]	MIC [4]	MIC [5]	MIC [6]	MIC [7]	MIC [8]	MIC [9]	MIC [10]	MIC [11]	MIC [12]	MIC (Proteus vulgaris HX-19)	MIC [13]	MIC [14]	MIC [15]	MIC [16]	MIC (Proteus vulgaris OX-19)	MIC [17]	MIC (Enterobacter cloacae 963)	further results
[C-]#[N+]C12CC3(/C=C/C(=O)Nc4ccc(Br)cc4)OC3C1O2 (centres unmarked) [compound 44]	> 200 µg/mL	3.13 µg/mL (≈ 9.02 µM)	0.39 µg/mL (≈ 1.12 µM)	100 µg/mL (≈ 288 µM)	> 200 µg/mL	3.13 µg/mL (≈ 9.02 µM)	0.39 µg/mL (≈ 1.12 µM)	3.13 µg/mL (≈ 9.02 µM)	< 0.05 µg/mL	25 µg/mL (≈ 72 µM)	> 200 µg/mL	50 µg/mL (≈ 144 µM)	0.1 µg/mL (≈ 0.288 µM)	> 200 µg/mL	3.13 µg/mL (≈ 9.02 µM)	50 µg/mL (≈ 144 µM)	> 200 µg/mL	6.25 µg/mL (≈ 18 µM)	> 200 µg/mL	> 200 µg/mL	MIC [18]: > 200 µg/mL; MIC [19]: 0.39 µg/mL (≈ 1.12 µM); MIC [20]: > 200 µg/mL; MIC [21]: 1.56 µg/mL (≈ 4.49 µM); MIC [22]: 12.5 µg/mL (≈ 36 µM); MIC (Salmonella typhi 901): 12.5 µg/mL (≈ 36 µM); MIC [23]: < 0.2 µg/mL; MIC [24]: 200 µg/mL (≈ 576 µM); MIC [25]: 0.2 µg/mL (≈ 0.576 µM)
[C-]#[N+]C12CC3(/C=C/C(=O)Nc4nc5ccccc5s4)OC3C1O2 (centres unmarked) [compound 70]	> 200 µg/mL	0.78 µg/mL (≈ 2.4 µM)	0.39 µg/mL (≈ 1.2 µM)	> 200 µg/mL	> 200 µg/mL	3.13 µg/mL (≈ 9.62 µM)	0.39 µg/mL (≈ 1.2 µM)	6.25 µg/mL (≈ 19.2 µM)	> 200 µg/mL	3.13 µg/mL (≈ 9.62 µM)	> 200 µg/mL	> 200 µg/mL	1.56 µg/mL (≈ 4.79 µM)	> 200 µg/mL	> 200 µg/mL	> 200 µg/mL	> 200 µg/mL	1.56 µg/mL (≈ 4.79 µM)	1.56 µg/mL (≈ 4.79 µM)	> 200 µg/mL	MIC [26]: > 200 µg/mL; MIC [18]: > 200 µg/mL; MIC [19]: 1.56 µg/mL (≈ 4.79 µM); MIC [20]: > 200 µg/mL; MIC [21]: 6.25 µg/mL (≈ 19.2 µM); MIC (Salmonella typhi 901): > 200 µg/mL; MIC [25]: 1.56 µg/mL (≈ 4.79 µM)
